Source: PubChem BioAssay (NCI)
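Tested at 5 concentrations; 48 h exposure; 96-well plates; endpoints linearly interpolated, else capped at highest concentration. At the TGI there is no net growth.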 Where a SMILES comes first, the peptide text is derived from it. The star is where a group is joined. Boc = CC(C)(C)OC(=O)*; OBn = c1ccc(CO*)cc1

Key:
Test in all cases: DTP human tumour cell line panel, 48 h
HS 578T breast = system: HS 578T breast
HL-60(TB) leukemia = system: HL-60(TB) leukemia
TK-10 renal = system: TK-10 renal
DU-145 prostate = system: DU-145 prostate
UACC-257 melanoma = system: UACC-257 melanoma
T-47D breast = system: T-47D breast
NCI/ADR-RES ovarian = system: NCI/ADR-RES ovarian
COLO 205 colon = system: COLO 205 colon
HCC-2998 colon = system: HCC-2998 colon

COc1cc(/C=C2\CCC(C)C3=C2NC(=S)NC3c2cc(OC)c(OC)c(OC)c2)cc(OC)c1OC (stereo not drawn)
TGI (HS 578T breast): > 100 µM
TGI (HL-60(TB) leukemia): 39.7 µM
TGI (TK-10 renal): > 100 µM
TGI (DU-145 prostate): > 100 µM
TGI (UACC-257 melanoma): > 100 µM

CCc1c(C)c(C#N)c(=S)n(C2OC(CO)C(O)C(O)C2O)c1C (stereo not drawn)
TGI (T-47D breast): > 100 µM
TGI (NCI/ADR-RES ovarian): > 100 µM
TGI (COLO 205 colon): > 100 µM
TGI (HCC-2998 colon): > 100 µM
TGI (HL-60(TB) leukemia): > 100 µM
TGI (TK-10 renal): > 100 µM
TGI (DU-145 prostate): > 100 µM
TGI (UACC-257 melanoma): > 100 µM

COC(=O)[C@@]12CCCC(=O)[C@@H]1[C@H]1CCCC[C@H]12
TGI (NCI/ADR-RES ovarian): > 100 µM
TGI (COLO 205 colon): > 100 µM
TGI (HCC-2998 colon): > 100 µM
TGI (TK-10 renal): > 100 µM
TGI (DU-145 prostate): > 100 µM
TGI (UACC-257 melanoma): > 100 µM

Oc1ccc(CCc2cc(O)cc(O)c2)cc1
TGI (T-47D breast): > 100 µM
TGI (NCI/ADR-RES ovarian): > 100 µM
TGI (COLO 205 colon): > 100 µM
TGI (HS 578T breast): > 100 µM
TGI (HL-60(TB) leukemia): > 100 µM
TGI (TK-10 renal): > 100 µM
TGI (DU-145 prostate): > 100 µM
TGI (UACC-257 melanoma): > 100 µM

O=C(NCCCNCCNC(=O)c1cc(-c2ccccc2)nc2ccccc12)c1cc(-c2ccccc2)nc2ccccc12
TGI (NCI/ADR-RES ovarian): 4.12 µM
TGI (COLO 205 colon): 3.21 µM
TGI (HCC-2998 colon): 3.11 µM
TGI (HS 578T breast): 4.5 µM
TGI (HL-60(TB) leukemia): 4.3 µM
TGI (TK-10 renal): 3.14 µM
TGI (UACC-257 melanoma): 3.08 µM

C/C(O)=C/c1nc2ccc([N+](=O)[O-])cc2nc1/C=C(/C)O
TGI (T-47D breast): 87.6 µM
TGI (NCI/ADR-RES ovarian): > 100 µM
TGI (COLO 205 colon): > 100 µM
TGI (HS 578T breast): 85.3 µM
TGI (HL-60(TB) leukemia): > 100 µM
TGI (TK-10 renal): > 100 µM
TGI (DU-145 prostate): > 100 µM
TGI (UACC-257 melanoma): 72.7 µM

C[n+]1c2ccccc2c(C(=O)Nc2ccc(S(=O)(=O)N=C(N)N)cc2)c2ccccc21
TGI (T-47D breast): > 100 µM
TGI (NCI/ADR-RES ovarian): > 100 µM
TGI (COLO 205 colon): > 100 µM
TGI (HCC-2998 colon): > 100 µM
TGI (HS 578T breast): > 100 µM
TGI (TK-10 renal): > 100 µM
TGI (DU-145 prostate): > 100 µM
TGI (UACC-257 melanoma): > 100 µM

O=C(CNc1ccc(Cl)cc1Cl)NC1C=Cc2ccc(S(=O)(=O)Nc3ccc(Cl)cc3Cl)cc2C1=O (stereo not drawn)
TGI (NCI/ADR-RES ovarian): > 100 µM
TGI (COLO 205 colon): > 100 µM
TGI (HCC-2998 colon): > 100 µM
TGI (HS 578T breast): > 100 µM
TGI (HL-60(TB) leukemia): > 100 µM
TGI (TK-10 renal): > 100 µM
TGI (DU-145 prostate): > 100 µM
TGI (UACC-257 melanoma): > 100 µM

Nc1cc(N2CCCC2)nc(=O)n1Cc1ccccc1
TGI (NCI/ADR-RES ovarian): > 100 µM
TGI (COLO 205 colon): > 100 µM
TGI (HL-60(TB) leukemia): > 100 µM
TGI (TK-10 renal): > 100 µM
TGI (DU-145 prostate): > 100 µM
TGI (UACC-257 melanoma): > 100 µM

COc1c(C)c(OC)c2c(c1O)[C@@H]1[C@@H]3Cc4c(OC)c(C)c(OC)c(O)c4[C@H](CNC(=O)c4cnc5ccccc5n4)N3[C@@H](C#N)[C@H](C2)N1C
TGI (T-47D breast): 0.00676 µM
TGI (NCI/ADR-RES ovarian): > 0.1 µM
TGI (COLO 205 colon): 0.0114 µM
TGI (HS 578T breast): 0.0192 µM
TGI (HL-60(TB) leukemia): 0.00554 µM
TGI (TK-10 renal): 0.0248 µM
TGI (DU-145 prostate): > 0.0206 µM
TGI (UACC-257 melanoma): 0.00756 µM

CC(C)(C)OC(=O)NC(Cc1ccccc1)C(=O)NC(Cc1ccccc1)C(=O)NCC(=O)OCc1ccccc1 (stereo not drawn) (Boc-Phe-Phe-Gly-OBn; configuration not given here)
TGI (T-47D breast): > 100 µM
TGI (NCI/ADR-RES ovarian): > 100 µM
TGI (COLO 205 colon): > 100 µM
TGI (HCC-2998 colon): 29.8 µM
TGI (HL-60(TB) leukemia): 57.6 µM
TGI (TK-10 renal): 53.1 µM
TGI (DU-145 prostate): 33.2 µM
TGI (UACC-257 melanoma): > 100 µM

CC(=O)O[C@H]1C(=O)[C@@]2(C)[C@H]([C@H](OC(=O)c3ccccc3)[C@]3(O)C[C@H](OC(=O)[C@H](O)[C@@H](NC(=O)CC(C)(C)C)c4ccccc4)C(C)=C1C3(C)C)C1(OC(C)=O)CO[C@@H]1C[C@@H]2O (stereo partly drawn)
TGI (T-47D breast): > 10 µM
TGI (NCI/ADR-RES ovarian): > 10 µM
TGI (COLO 205 colon): 0.012 µM
TGI (HCC-2998 colon): 0.0418 µM
TGI (HS 578T breast): 0.00653 µM
TGI (TK-10 renal): > 10 µM
TGI (DU-145 prostate): 0.0833 µM
TGI (UACC-257 melanoma): > 10 µM
